Tested on: Influenza A/Victoria/H3N2
Experiment: Plaque assay on MDCK cells after exposure of virions to 160 ppm NO gas
Format: cell-based
Details: for plaques (infectious virus titre): 160 ppm gNO

In the case of Nitric oxide [NO-gas], the “plaques (infectious virus titre)” value (exposure 0 mins) is reported as 250 ± 14 pfu/ml, the “plaques (infectious virus titre)” value (exposure 60 mins) is reported as 50 ± 11 pfu/ml and the “plaques (infectious virus titre)” value (exposure 120 mins) is reported as 43 ± 10 pfu/ml. The “plaques (infectious virus titre)” value (exposure 180 mins) was 29 ± 14 pfu/ml and the “less transmissible into host cells than the control group” value (virions exposed to 160 ppm NO before incubation with host cells) was “at least 80%”.

— patent publication US20100040703A1, “USE OF NITRIC OXIDE” (priority 2008, published 2010)
